The conditions of data set [1]: cited from earlier work; for Alkalinity / base strength in words: aqueous solution.
Data set [2] is described as follows: In vitro keratolysis study: release of protein from ground callus (BioRad protein assay). The note with it: incubation 40 minutes (Table 3).
Test in data set [3]: as above
The note with it: for Protein release compared with glycolic acid, other bases / water control: 10 minutes (Example 7); for Protein release compared with glycolic acid / water control: all time points (Example 6). As to the method: An in vitro keratolysis study was performed to compare the capability of glycolic acid and a base for removing protein from stratum corneum. Adult foot callus was collected, grounded and the portion between 50-80 mesh was used. Glycolic acid and sodium hydroxide solutions (concentration=0.05 M) were prepared in distilled water. Ten mg of ground callus powder was place in a test tube. Four ml of a test chemical was added to the callus and the test tube was placed in a shaker and incubated in a water bath at 37° C. for a predetermined incubation time. The incubation time periods were 10 min., 40 min, 2 hours, 4 hours, 6 hours and 24 hours. Six samples of each base were tested a total of six times each at each of the aforementioned incubation time periods.
At the end of each incubation period, the test tube was removed from the shaker and the test tube was centrifuged. The solution was removed and filtered, and the protein in the solution was then determined using a BioRad® protein assay kit.

The conditions of data set [4]: cited from earlier work.
Setting [5] is: 0.05 M solutions, incubation time 10 minutes (Table 2, Example 7).
Setting [6] is: 0.05 M solution, 37° C., incubation 10 min (Table 1).
Setting [7] is: 0.05 M solution, 37° C., incubation 40 min (Table 1).
The mark [8] stands for this setting: 0.05 M solution, 37° C., incubation 2 hours (Table 1).
Where [9] appears, read: 0.05 M solution, 37° C., incubation 4 hours (Table 1).
Setting [10] is: 0.05 M solution, 37° C., incubation 6 hours (Table 1).
Setting [11] is: 0.05 M solution, 37° C., incubation 24 hours (Table 1).

The source of these data is patent US20030235543A1, “Topical administration of pharmacologically active bases for skin lightening” (priority 2002, published 2003).

Read-outs that look alike come from different tables or passages of the source.

As to `O.O.O.O.O.O.O.O.O.O.O.O.O=P([O-])([O-])O.[Na+].[Na+]` [Sodium phosphate, dibasic, dodecahydrate], the “pH of Aqueous Solution (concentration)” value in data set [1] (concentration not given) was “˜9.5”.
For the molecule `C1CCNCC1` [Piperidine], the “Alkalinity / base strength in words” value in data set [1] is “Strong base”. Also, the “Amount of Protein Released” value is given as 0.066 mg/4 ml in data set [2] (0.005% solution) and 0.071 mg/4 ml in data set [2] (0.01% solution).
Take `O=P([O-])([O-])O.[Na+].[Na+]` [Sodium phosphate, dibasic]: the “pH of Aqueous Solution (concentration)” value in data set [1] (concentration not given) was “˜9.5”.
For the molecule `O=P([O-])([O-])[O-].[Na+].[Na+].[Na+]` [Sodium phosphate, tribasic], the results for the “Amount of Protein Released” value in data set [2] (0.005% solution) and in data set [2] (0.01% solution) were 0.048 mg/4 ml and 0.050 mg/4 ml, respectively.
In the case of `C[N+](C)(C)CC(=O)O` [Betaine], the “Amount of Protein Released” value in data set [3] (setting [5]) is 0.144 mg/4 ml.
As to `C1CCNC1` [Pyrrolidine], the “Alkalinity / base strength in words” value in data set [1] is “Strong base”. Further, the “Amount of Protein Released” value stood at 0.060 mg/4 ml in data set [2] (0.005% solution) and 0.066 mg/4 ml in data set [2] (0.01% solution).
In the case of `OCCNCCO` [Diethanolamine], the “Amount of Protein Released” value in data set [3] (setting [5]) is listed as 0.144 mg/4 ml. Further, the “pH of Aqueous Solution (concentration)” value in data set [1] (0.1 N) is 11.0 (0.1 N).
For `NCCc1ccccc1` [Phenethylamine], the “Alkalinity / base strength in words” value in data set [1] is on record as “Strong base”.
As to `CC(=O)[O-].[Na+]` [Sodium acetate, anhydrous], the “pH of Aqueous Solution (concentration)” value in data set [1] (0.1 N) was “˜8.9 (0.1 N)”.
`NCCN` [Ethylenediamine]: in data set [1], the “Alkalinity / base strength in words” value is “Strong base”. Further, the “Amount of Protein Released” value stood at 0.059 mg/4 ml in data set [2] (0.005% solution) and 0.080 mg/4 ml in data set [2] (0.01% solution).
Regarding `O.O.O.O.O.O.O.O.O.O.O.O.O=P([O-])([O-])[O-].[Na+].[Na+].[Na+]` [Sodium phosphate, tribasic dodecahydrate], the results for the “pH of Aqueous Solution (concentration)” value in data set [1] (0.1%), in data set [1] (0.5%) and in data set [1] (1% (1.0%)) were 11.5, 11.7 and 11.9, respectively.
Regarding `[O]=[Mg]` [Magnesium oxide], the “pH of Aqueous Solution (concentration)” value in data set [1] (saturated solution in water) is given as 10.3 (saturated aqueous solution).
Turning to `N.N.O=P(O)(O)O` [Ammonium phosphate, dibasic], the “pH of Aqueous Solution (concentration)” value in data set [1] (concentration not given) is recorded as “˜8”.
Consider `O=C([O-])[O-].[Na+].[Na+]` [Sodium carbonate anhydrous], for which, in data set [1] (concentration not given), the “pH of Aqueous Solution (concentration)” value is “˜11.6”.
For `CCC(N)CO` (centres unmarked) [2-amino-1-butanol], the “Amount of Protein Released” value in data set [3] (setting [5]) came out at 0.174 mg/4 ml.
On to `O.O.O.O.O.O.O.O=P([O-])([O-])O.[Na+].[Na+]` [Sodium phosphate, dibasic, heptahydrate], for which, in data set [1] (concentration not given), the “pH of Aqueous Solution (concentration)” value is “˜9.5”.
As to `N=C(N)NCCC[C@H](N)C(=O)O` [Arginine], the “Amount of Protein Released” value in data set [3] (setting [5]) is on record as 0.153 mg/4 ml.
Regarding `NC1CCCCC1` [Cyclohexylamine], the “Alkalinity / base strength in words” value in data set [1] is on record as “Strong base”.
Take `CN(C)C` [Trimethylamine]: the “Alkalinity / base strength in words” value in data set [1] was “Strong base”.
In the case of `O=P([O-])([O-])O.[K+].[K+]` [Potassium phosphate, dibasic], the “Alkalinity / base strength in words” value in data set [1] was “Aqueous solution is slightly alkaline”.
As to `O=C(O)CO` [Glycolic Acid, reference compound], the “Amount of Protein Released” value in data set [3] (setting [6]) was determined as 0.093 mg/4 ml; in data set [3] (setting [7]), 0.175 mg/4 ml; in data set [3] (setting [8]), 0.126 mg/4 ml; in data set [3] (setting [9]), 0.219 mg/4 ml; in data set [3] (setting [10]) it was 0.089 mg/4 ml; in data set [3] (setting [11]), 0.173 mg/4 ml. The “Amount of Protein Released” value in data set [3] (setting [5]) is 0.187 mg/4 ml. Moreover, the “Protein release compared with glycolic acid, other bases / water control” value in data set [3] (0.05 M) is “did not show significant differences in comparison with water”. Besides, in data set [3] (0.05 M), the “Protein release compared with glycolic acid / water control” value is recorded as “did not show statistical differences in comparison with water”.
On to `O=C([O-])[O-].[K+].[K+]` [Potassium carbonate], for which the “Amount of Protein Released” value in data set [2] (0.005% solution) is given as 0.068 mg/4 ml; in data set [2] (0.01% solution), 0.073 mg/4 ml.
Regarding `N[C@@H](Cc1c[nH]c2ccccc12)C(=O)O` [L-tryptophan], in data set [3] (setting [5]), the “Amount of Protein Released” value came to 0.170 mg/4 ml.
As to `CC(C)(N)CO` [2-amino-2-methyl-1-propanol], the “pH of Aqueous Solution (concentration)” value in data set [1] (0.1 m) is given as 11.3 (0.1 m).
On to `O=B[O-].[Na+]` [Sodium metaborate], for which the “Alkalinity / base strength in words” value in data set [1] is “Strongly alkaline”.
On to `O=P([O-])([O-])O.[Na+].[Na+]` [Sodium phosphate, dibasic, anhydrous], for which, in data set [1] (1% (1.0%)), the “pH of Aqueous Solution (concentration)” value is given as 9.1 (1%).
`CC(N)(CO)CO` [2-amino-2-methyl-1,3-propanediol]: the “pH of Aqueous Solution (concentration)” value in data set [1] (0.1 m) was 10.8 (0.1 m).
Regarding `O.O.O=P([O-])([O-])O.[Na+].[Na+]` [Sodium phosphate, dibasic, dihydrate], the “pH of Aqueous Solution (concentration)” value in data set [1] (concentration not given) is “˜9.5”.
On to `[Na+].[OH-]` [NaOH, Sodium hydroxide], for which the “Protein released at 6 hours and 24 hours compared with 10 minutes, 40 minutes, 2 hours and 4 hours” value in data set [3] (0.05 M) is “significantly higher”. Also, the “Amount of Protein Released” value was determined as 0.419 mg/4 ml in data set [3] (setting [6]); 0.739 mg/4 ml in data set [3] (setting [7]); 0.899 mg/4 ml in data set [3] (setting [8]); 1.003 mg/4 ml in data set [3] (setting [9]); 4.853 mg/4 ml in data set [3] (setting [10]); 5.148 mg/4 ml in data set [3] (setting [11]). Also, the figures for the “Amount of Protein Released” value in data set [3] (setting [5]), in data set [2] (0.005% solution) and in data set [2] (0.01% solution) were 0.544 mg/4 ml, 0.059 mg/4 ml and 0.074 mg/4 ml, respectively. In addition, the “Protein release compared with glycolic acid, other bases / water control” value in data set [3] (0.05 M) is given as “released more protein”. In addition, the “Protein release compared with glycolic acid / water control” value in data set [3] (0.05 M) is “released more protein”. Also, the “pH of Aqueous Solution (concentration)” value was 12 in data set [1] (0.05%), 13 in data set [1] (0.5%) and 14 in data set [1] (5%).
For the molecule `[O]=[Ca]` [Calcium oxide], the “Solubility in water” value in data set [4] is recorded as “Soluble in water, Form Ca(OH)2”.
`CC(=O)[O-].[K+]` [Potassium acetate]: the “Amount of Protein Released” value is 0.060 mg/4 ml in data set [2] (0.005% solution) and 0.064 mg/4 ml in data set [2] (0.01% solution).
For `N` [Ammonium hydroxide], the “pH of Aqueous Solution (concentration)” value is given as 10.27 in data set [1] (0.001 N) and 11.27 in data set [1] (1 N).
In the case of `O=C([O-])CC(O)(CC(=O)[O-])C(=O)[O-].[K+].[K+].[K+]` [Potassium citrate], the “pH of Aqueous Solution (concentration)” value in data set [1] (concentration not given) is listed as “˜8.5”.
